Measured values from US20260055103A1, “2,3,4,9-TETRAHYDRO-1H-PYRIDO[3,4-B]INDOLE DERIVATIVES AS ESTROGEN RECEPTOR MODULATORS FOR THE TREATMENT OF CANCER” (Olema Pharmaceuticals, Inc., priority 2022, published 2026).

Biological target: T1, estrogen receptor (Homo sapiens, UniProt P03372)
T1 construct: endogenous in cells; host or cells: ECC-1 cells
T1 sequence (P03372 1-595): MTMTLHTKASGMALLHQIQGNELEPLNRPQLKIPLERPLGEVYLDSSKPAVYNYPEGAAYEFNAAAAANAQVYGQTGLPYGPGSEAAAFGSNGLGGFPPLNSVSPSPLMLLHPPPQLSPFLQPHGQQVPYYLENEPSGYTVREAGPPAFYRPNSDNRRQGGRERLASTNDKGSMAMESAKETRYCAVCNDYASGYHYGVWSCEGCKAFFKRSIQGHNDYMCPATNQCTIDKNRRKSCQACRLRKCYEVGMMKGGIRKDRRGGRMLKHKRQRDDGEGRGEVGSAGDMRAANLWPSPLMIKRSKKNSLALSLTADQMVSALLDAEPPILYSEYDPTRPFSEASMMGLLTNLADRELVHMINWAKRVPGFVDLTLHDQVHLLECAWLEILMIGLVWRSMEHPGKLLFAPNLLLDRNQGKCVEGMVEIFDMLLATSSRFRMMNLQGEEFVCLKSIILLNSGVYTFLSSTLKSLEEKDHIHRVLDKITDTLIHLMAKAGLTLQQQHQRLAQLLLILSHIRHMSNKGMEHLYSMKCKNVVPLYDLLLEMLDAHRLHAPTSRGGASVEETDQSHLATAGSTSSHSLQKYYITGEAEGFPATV
Test: Alkaline phosphatase (AP) assay in ECC-1 cells, agonist mode (no E2) and antagonist mode (500 pM E2)
Type: cell-based
Details: 3 days, AP activity normalized to 500 pM E2 alone, agonist mode without E2, antagonist mode with 500 pM E2
Summary of the method: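 ECC-1 cells in hormone-depleted medium treated 3 days with compound alone (agonist mode) or with 500 pM E2 (antagonist mode). Alkaline phosphatase read by p-nitrophenyl phosphate hydrolysis, 40 min at 42° C, A405. Activity normalized to 500 pM E2 alone.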

| SMILES | Activity (estrogen receptor modulation, agonism and antagonism) |
| --- | --- |
| C[C@@H]1Cc2c([nH]c3ccccc23)[C@@H](c2cnc(N[C@@H]3CN(CCCF)C[C@@H]3F)s2)N1CC(F)(F)CO [Example I-72, 2,2-difluoro-3-[(1S,3R)-1-[2-[[(3R,4S)-4-fluoro-1-(3-fluoropropyl)pyrrolidin-3-yl]amino]thiazol-5-yl]-3-methyl-1,3,4,9-tetrahydropyrido[3,4-b]indol-2-yl]propan-1-ol] | ++ (estrogen receptor antagonism having (i) between 10% and 80% increase in the E2-normalized signal in the AP assay (agonist mode) and (ii) between 10% and 80% reduction in the E2-normalized signal in the AP assay (antagonist mode)) |
| C[C@@H]1Cc2c([nH]c3ccccc23)[C@@H](c2cnc(N[C@H]3CCN(CCCF)C3)s2)N1CC(F)(F)CO [Example I-73, 2,2-difluoro-3-[(1S,3R)-1-[2-[[(3S)-1-(3-fluoropropyl)pyrrolidin-3-yl]amino]thiazol-5-yl]-3-methyl-1,3,4,9-tetrahydropyrido[3,4-b]indol-2-yl]propan-1-ol] | ++ (estrogen receptor antagonism having (i) between 10% and 80% increase in the E2-normalized signal in the AP assay (agonist mode) and (ii) between 10% and 80% reduction in the E2-normalized signal in the AP assay (antagonist mode)) |
| CCN1CCN(c2ccc([C@@H]3c4[nH]c5ccccc5c4C[C@@H](C)N3CC(C)(C)F)s2)CC1 [Example I-74, (1S,3R)-1-[5-(4-ethylpiperazin-1-yl)-2-thienyl]-2-(2-fluoro-2-methyl-propyl)-3-methyl-1,3,4,9-tetrahydropyrido[3,4-b]indole] | + (estrogen receptor agonism having (i) at least 80% increase in the E2-normalized signal in the AP assay (agonist mode) and (ii) no more than 80% reduction in the E2-normalized signal in the AP assay (antagonist mode)) |
